In patent US20020137929A1, “1 - (3-heterocyclylphenyl) isothiourea, -isourea, -guanidine and -amidine herbicidal agents” (Intellectual Property Department, BASF Aktiengesellschaft, priority 1998, published 2002):

Experiments:
[1] = test system: CYPSE (Flatsedge); test: Preemergence weed control under flooded paddy conditions; type: in vivo, Cyperus serotinus; details: rated 3-4 weeks after treatment
Method in brief: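 Seeds or propagules sown in top 0.5 cm of silt loam soil, flooded 1.5 to 3 cm above surface throughout. Compound in 50/50 v/v aqueous/acetone pipetted into flood water at about 0.0313 to 0.500 kg/ha. Visual 0-9 rating versus control after three to four weeks in greenhouse.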

[2] = test system: CASOB (Sicklepod); test: Preemergence herbicidal evaluation; type: in vivo, Cassia obtusifolia; details: rated 4-5 weeks after treatment
Method in brief: (§1)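 Each species is sown separately in potting soil over roughly an inch of soil before any emergence. The soil surface then receives an aqueous acetone spray delivering about 0.0156 to 0.500 kg/ha of compound. After four to five weeks, injury is scored from 0 to 9 relative to a control.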

[3] = test system: CYPIR (Rice Flatsedge); test: Postemergence weed control under flooded paddy conditions; type: in vivo, Cyperus iria; details: postemergence weeds, 3-4 weeks after treatment
Method in brief: (§2)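 Flood-water application, about 0.0313–0.500 kg/ha a.i. in aqueous/acetone 50/50 v/v; water depth 1.5–3 cm throughout. Weeds 3–5 cm, rice 1.5–2.5 leaf. Greenhouse; 0–9 visual rating vs control at 3–4 wk.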

[4] = test system: IPOHE (Morningglory, Ivyleaf); test: Preemergence herbicidal evaluation; type: in vivo, Ipomoea hederacea; details: rated 4-5 weeks after treatment
Method in brief: as §1

[5] = test system: IPOHE (Morningglory, Ivyleaf); test: Postemergence herbicidal evaluation; type: in vivo, Ipomoea hederacea; details: postemergence
Method in brief: (§3)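 Each compound, dispersed in an acetone/water mix (50/50) carrying 0.5% TWEEN 20, is nozzle-sprayed at 40 psi on approximately two-week-old seedlings at about 0.0156–0.500 kg/ha. Plants are assessed 4–5 weeks afterward on a 0–9 scale relative to control; duplicate tests are averaged.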

[6] = test system: ZEAMX (Corn, Field); test: Postemergence herbicidal evaluation; type: in vivo, Zea mays; details: postemergence
Method in brief: as §3

[7] = test system: SETVI (Foxtail, Green); test: Postemergence herbicidal evaluation; type: in vivo, Setaria viridis; details: postemergence
Method in brief: as §3

[8] = test system: ECHORC (Watergrass (Calif.)); test: Postemergence weed control under flooded paddy conditions; type: in vivo, Echinochloa oryzoides; details: postemergence weeds, 3-4 weeks after treatment
Method in brief: as §2

[9] = test system: GLXMAW (Soybean, Williams); test: Postemergence herbicidal evaluation; type: in vivo, Glycine max, (L.) Merr. cv Williams; details: postemergence
Method in brief: as §3

[10] = test system: AMBEL (Ragweed, Common); test: Preemergence herbicidal evaluation; type: in vivo, Ambrosia artemisifolia; details: rated 4-5 weeks after treatment
Method in brief: as §1

[11] = test system: ABUTH (Velvetleaf); test: Preemergence herbicidal evaluation; type: in vivo, Abutilon theophrasti; details: rated 4-5 weeks after treatment
Method in brief: as §1

[12] = test system: ECHORC (Watergrass (Calif.)); test: Preemergence weed control under flooded paddy conditions; type: in vivo, Echinochloa oryzoides; details: rated 3-4 weeks after treatment
Method in brief: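 Ratings on a 0-9 visual scale cover stand, vigor, malformation, size, chlorosis and overall appearance relative to a control, taken three to four weeks post-treatment. Application was into flood water over freshly sown silt loam at roughly 0.0313 to 0.500 kg/ha.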

[13] = test system: ABUTH (Velvetleaf); test: Postemergence herbicidal evaluation; type: in vivo, Abutilon theophrasti; details: postemergence
Method in brief: as §3

[14] = test system: ECHCG (Barnyardgrass); test: Preemergence herbicidal evaluation; type: in vivo, Echinochloa crus-galli; details: rated 4-5 weeks after treatment
Method in brief: as §1

C=CCN1C(=O)CSC1=Nc1cc(-n2c(=O)cc(C(F)(F)F)n(C)c2=O)c(F)cc1Cl [Compound 27]
Herbicidal rating CYPSE ([1]; 0.0313 kg/ha): 0.0
Herbicidal rating CYPSE ([1]; 0.0625 kg/ha): 0.0
Herbicidal rating CYPSE ([1]; 0.1250 kg/ha): 0.0
Herbicidal rating CYPSE ([1]; 0.2500 kg/ha): 9.0
Preemergence herbicidal rating CASOB ([2]; rate 0.0156 kg/ha): 0.0
Preemergence herbicidal rating CASOB ([2]; rate 0.0313 kg/ha): 0.0
Preemergence herbicidal rating CASOB ([2]; rate 0.0625 kg/ha): 0.0
Preemergence herbicidal rating CASOB ([2]; rate 0.1250 kg/ha): 0.0
Preemergence herbicidal rating CASOB ([2]; rate 0.2500 kg/ha): 0.0
Herbicidal rating CYPIR ([3]; rate 0.0313 kg/ha): 3.0
Herbicidal rating CYPIR ([3]; rate 0.0625 kg/ha): 4.0
Herbicidal rating CYPIR ([3]; rate 0.1250 kg/ha): 6.0
Herbicidal rating CYPIR ([3]; rate 0.2500 kg/ha): 9.0
Preemergence herbicidal rating IPOHE ([4]; rate 0.0156 kg/ha): 0.0
Preemergence herbicidal rating IPOHE ([4]; rate 0.0313 kg/ha): 0.0
Preemergence herbicidal rating IPOHE ([4]; rate 0.0625 kg/ha): 8.0
Preemergence herbicidal rating IPOHE ([4]; rate 0.1250 kg/ha): 9.0
Preemergence herbicidal rating IPOHE ([4]; rate 0.2500 kg/ha): 9.0
IPOHE herbicidal rating ([5]; rate 0.0158 kg/ha): 9.0
IPOHE herbicidal rating ([5]; rate 0.0315 kg/ha): 9.0
IPOHE herbicidal rating ([5]; rate 0.0630 kg/ha): 9.0
ZEAMX herbicidal rating ([6]; rate 0.0158 kg/ha): 5.0
ZEAMX herbicidal rating ([6]; rate 0.0315 kg/ha): 5.5
ZEAMX herbicidal rating ([6]; rate 0.0630 kg/ha): 6.5
SETVI herbicidal rating ([7]; rate 0.0158 kg/ha): 2.0
SETVI herbicidal rating ([7]; rate 0.0315 kg/ha): 4.0
SETVI herbicidal rating ([7]; rate 0.0630 kg/ha): 9.0
Herbicidal rating ECHORC ([8]; rate 0.0313 kg/ha): 6.0
Herbicidal rating ECHORC ([8]; rate 0.0625 kg/ha): 7.0
Herbicidal rating ECHORC ([8]; rate 0.1250 kg/ha): 9.0
Herbicidal rating ECHORC ([8]; rate 0.2500 kg/ha): 9.0
GLXMAW herbicidal rating ([9]; rate 0.0158 kg/ha): 6.0
GLXMAW herbicidal rating ([9]; rate 0.0315 kg/ha): 6.5
GLXMAW herbicidal rating ([9]; rate 0.0630 kg/ha): 7.5
Preemergence herbicidal rating AMBEL ([10]; rate 0.0156 kg/ha): 0.0
Preemergence herbicidal rating AMBEL ([10]; rate 0.0313 kg/ha): 2.0
Preemergence herbicidal rating AMBEL ([10]; rate 0.0625 kg/ha): 2.0
Preemergence herbicidal rating AMBEL ([10]; rate 0.1250 kg/ha): 9.0
Preemergence herbicidal rating AMBEL ([10]; rate 0.2500 kg/ha): 7.0
Preemergence herbicidal rating ABUTH ([11]; rate 0.0156 kg/ha): 7.0
Preemergence herbicidal rating ABUTH ([11]; rate 0.0313 kg/ha): 9.0
Preemergence herbicidal rating ABUTH ([11]; rate 0.0625 kg/ha): 9.0
Preemergence herbicidal rating ABUTH ([11]; rate 0.1250 kg/ha): 9.0
Preemergence herbicidal rating ABUTH ([11]; rate 0.2500 kg/ha): 9.0
Herbicidal rating ECHORC ([12]; 0.0313 kg/ha): 6.0
Herbicidal rating ECHORC ([12]; 0.0625 kg/ha): 7.0
Herbicidal rating ECHORC ([12]; 0.1250 kg/ha): 9.0
Herbicidal rating ECHORC ([12]; 0.2500 kg/ha): 9.0
ABUTH herbicidal rating ([13]; rate 0.0158 kg/ha): 9.0
ABUTH herbicidal rating ([13]; rate 0.0315 kg/ha): 9.0
ABUTH herbicidal rating ([13]; rate 0.0630 kg/ha): 9.0
Preemergence herbicidal rating ECHCG ([14]; rate 0.0156 kg/ha): 0.0
Preemergence herbicidal rating ECHCG ([14]; rate 0.0313 kg/ha): 8.0
Preemergence herbicidal rating ECHCG ([14]; rate 0.0625 kg/ha): 9.0
Preemergence herbicidal rating ECHCG ([14]; rate 0.1250 kg/ha): 9.0
Preemergence herbicidal rating ECHCG ([14]; rate 0.2500 kg/ha): 9.0

CCOC(=O)CN1C(=O)C(CC)SC1=Nc1cc(-n2c(=O)cc(C(F)(F)F)n(C)c2=O)c(F)cc1Cl (centres unmarked) [Compound 13, Ethyl 2-{{2-chloro-5-[3,6-dihydro-3-methyl-2,6-dioxo-4-(trifluoromethyl)-1(2H)-pyrimidinyl]-4-fluorophenyl}imino}-5-ethyl-4-oxo-3-thiazolidineacetate]
Herbicidal rating CYPSE ([1]; 0.0156 kg/ha): 0.0
Herbicidal rating CYPSE ([1]; 0.0313 kg/ha): 0.0
Herbicidal rating CYPSE ([1]; 0.0625 kg/ha): 0.0
Herbicidal rating CYPSE ([1]; 0.1250 kg/ha): 0.0
Herbicidal rating CYPSE ([1]; 0.2500 kg/ha): 0.0
CASOB preemergence herbicidal rating ([2]; rate 0.0156 kg/ha): 0.0
CASOB preemergence herbicidal rating ([2]; rate 0.0313 kg/ha): 0.0
CASOB preemergence herbicidal rating ([2]; rate 0.0625 kg/ha): 0.0
CASOB preemergence herbicidal rating ([2]; rate 0.1250 kg/ha): 1.0
CASOB preemergence herbicidal rating ([2]; rate 0.2500 kg/ha): 3.0
Herbicidal rating CYPIR ([3]; rate 0.0313 kg/ha): 0.0
Herbicidal rating CYPIR ([3]; rate 0.0625 kg/ha): 0.0
Herbicidal rating CYPIR ([3]; rate 0.1250 kg/ha): 0.5
Herbicidal rating CYPIR ([3]; rate 0.2500 kg/ha): 1.0
IPOHE preemergence herbicidal rating ([4]; rate 0.0156 kg/ha): 2.5
IPOHE preemergence herbicidal rating ([4]; rate 0.0313 kg/ha): 3.5
IPOHE preemergence herbicidal rating ([4]; rate 0.0625 kg/ha): 9.0
IPOHE preemergence herbicidal rating ([4]; rate 0.1250 kg/ha): 8.0
IPOHE preemergence herbicidal rating ([4]; rate 0.2500 kg/ha): 9.0
IPOHE herbicidal rating ([5]; rate 0.0156 kg/ha): 9.0
IPOHE herbicidal rating ([5]; rate 0.0313 kg/ha): 9.0
IPOHE herbicidal rating ([5]; rate 0.0625 kg/ha): 9.0
IPOHE herbicidal rating ([5]; rate 0.1250 kg/ha): 9.0
ZEAMX herbicidal rating ([6]; rate 0.0156 kg/ha): 7.0
ZEAMX herbicidal rating ([6]; rate 0.0313 kg/ha): 7.0
ZEAMX herbicidal rating ([6]; rate 0.0625 kg/ha): 7.5
ZEAMX herbicidal rating ([6]; rate 0.1250 kg/ha): 8.0
SETVI herbicidal rating ([7]; rate 0.0156 kg/ha): 0.0
SETVI herbicidal rating ([7]; rate 0.0313 kg/ha): 4.0
SETVI herbicidal rating ([7]; rate 0.0625 kg/ha): 4.0
SETVI herbicidal rating ([7]; rate 0.1250 kg/ha): 9.0
Herbicidal rating ECHORC ([8]; rate 0.0313 kg/ha): 5.5
Herbicidal rating ECHORC ([8]; rate 0.0625 kg/ha): 7.0
Herbicidal rating ECHORC ([8]; rate 0.1250 kg/ha): 8.0
Herbicidal rating ECHORC ([8]; rate 0.2500 kg/ha): 9.0
GLXMAW herbicidal rating ([9]; rate 0.0156 kg/ha): 5.0
GLXMAW herbicidal rating ([9]; rate 0.0313 kg/ha): 5.5
GLXMAW herbicidal rating ([9]; rate 0.0625 kg/ha): 5.5
GLXMAW herbicidal rating ([9]; rate 0.1250 kg/ha): 7.5
AMBEL preemergence herbicidal rating ([10]; rate 0.0156 kg/ha): 0.0
AMBEL preemergence herbicidal rating ([10]; rate 0.0313 kg/ha): 2.0
AMBEL preemergence herbicidal rating ([10]; rate 0.0625 kg/ha): 6.0
AMBEL preemergence herbicidal rating ([10]; rate 0.1250 kg/ha): 9.0
AMBEL preemergence herbicidal rating ([10]; rate 0.2500 kg/ha): 9.0
ABUTH preemergence herbicidal rating ([11]; rate 0.0156 kg/ha): 6.0
ABUTH preemergence herbicidal rating ([11]; rate 0.0313 kg/ha): 9.0
ABUTH preemergence herbicidal rating ([11]; rate 0.0625 kg/ha): 9.0
ABUTH preemergence herbicidal rating ([11]; rate 0.1250 kg/ha): 9.0
ABUTH preemergence herbicidal rating ([11]; rate 0.2500 kg/ha): 9.0
Herbicidal rating ECHORC ([12]; 0.0156 kg/ha): 3.5
Herbicidal rating ECHORC ([12]; 0.0313 kg/ha): 5.5
Herbicidal rating ECHORC ([12]; 0.0625 kg/ha): 7.0
Herbicidal rating ECHORC ([12]; 0.1250 kg/ha): 8.0
Herbicidal rating ECHORC ([12]; 0.2500 kg/ha): 9.0
ABUTH herbicidal rating ([13]; rate 0.0156 kg/ha): 9.0
ABUTH herbicidal rating ([13]; rate 0.0313 kg/ha): 9.0
ABUTH herbicidal rating ([13]; rate 0.0625 kg/ha): 9.0
ABUTH herbicidal rating ([13]; rate 0.1250 kg/ha): 9.0
ECHCG preemergence herbicidal rating ([14]; rate 0.0156 kg/ha): 0.0
ECHCG preemergence herbicidal rating ([14]; rate 0.0313 kg/ha): 0.0
ECHCG preemergence herbicidal rating ([14]; rate 0.0625 kg/ha): 1.0
ECHCG preemergence herbicidal rating ([14]; rate 0.1250 kg/ha): 7.0
ECHCG preemergence herbicidal rating ([14]; rate 0.2500 kg/ha): 8.0
